In patent US6525001B1, “Substituted pyrimidine and pyridine herbicides” (Mid-American Commercialization Corporation, priority 1997, dated 2003):

Key:
Type in all cases: in vivo
[1] = system: blackgrass (Alopecurus myosuroides); assay: Test B pre-/postemergence; parameters: key: 0 is no effect; 10 is complete control
Procedure, shortened: (§1)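 Response scores run from 0, meaning no effect, to 10, meaning complete control, assigned by eye relative to controls twelve to sixteen days after spraying. Treatment was both preemergence on planted seed and postemergence on plants at the 1- to 4-leaf stage.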

[2] = system: broadleaf signalgrass (Brachiaria decumbens); assay: Test B pre-/postemergence; parameters: key: 0 is no effect; 10 is complete control
Procedure, shortened: as §1

[3] = system: cocklebur (Xanthium strumarium); assay: Test B pre-/postemergence; parameters: key: 0 is no effect; 10 is complete control
Procedure, shortened: as §1

[4] = system: momingglory (Ipomoea hederacea); assay: Test B pre-/postemergence; parameters: key: 0 is no effect; 10 is complete control
Procedure, shortened: as §1

[5] = system: pigweed (Amaranthus retroflexus); assay: Test B pre-/postemergence; parameters: key: 0 is no effect; 10 is complete control
Procedure, shortened: as §1

[6] = system: arrowleaf sida (Sida rhombifolia); assay: Test C; parameters: key: 0 was no effect; 100 was complete control; conditions: PREEMERGENCE
[7] = system: johnsongrass (Sorghum halepense); assay: Test C; parameters: key: 0 was no effect; 100 was complete control; conditions: PREEMERGENCE
[8] = system: redroot pigweed (Amaranthus retroflexus); assay: Test C; parameters: key: 0 was no effect; 100 was complete control; conditions: PREEMERGENCE
[9] = Rate 250 g/ha, Postemergence (so in the source)

Compound | Plant response rating, Blackgrass ([1]; Rate 62 g/ha, Postemergence) | Blackgrass plant response rating ([1]; Rate 62 g/ha, Preemergence) | Plant response rating, Blackgrass ([1]; Rate 125 g/ha, Postemergence) | Blackgrass plant response rating ([1]; Rate 125 g/ha, Preemergence) | Plant response rating, Blackgrass ([1]; Rate 250 g/ha, Postemergence) | Plant response rating, B. signalgrass ([2]; Rate 62 g/ha, Postemergence) | B. signalgrass plant response rating ([2]; Rate 62 g/ha, Preemergence) | Plant response rating, B. signalgrass ([2]; Rate 125 g/ha, Postemergence) | B. signalgrass plant response rating ([2]; Rate 125 g/ha, Preemergence) | Plant response rating, B. signalgrass ([2]; Rate 250 g/ha, Postemergence) | Cocklebur plant response rating ([3]; Rate 62 g/ha, Preemergence) | Plant response rating, Cocklebur ([3]; Rate 125 g/ha, Postemergence) | Cocklebur plant response rating ([3]; Rate 125 g/ha, Preemergence) | Plant response rating, Cocklebur ([3]; Rate 250 g/ha, Postemergence) | Plant response rating, Morningglory ([4]; Rate 62 g/ha, Postemergence) | Morningglory plant response rating ([4]; Rate 62 g/ha, Preemergence) | Morningglory plant response rating ([4]; Rate 125 g/ha, Preemergence) | Plant response rating, Morningglory ([4]; Rate 250 g/ha, Postemergence) | Plant response rating, Redroot pigweed ([5]; Rate 62 g/ha, Postemergence) | Redroot pigweed plant response rating ([5]; Rate 62 g/ha, Preemergence) | also measured
Cc1cnc(-c2ccc(C(F)(F)F)cc2)nc1C(Cl)c1cccc(C(F)(F)F)c1 (racemic) [Compound 21] | 3 | 1 | 4 | 3 | 6 | 3 | 2 | 4 | 3 | 7 | 0 | 8 | 0 | 8 | 8 | 1 | 1 | 9 | 8 | 7 | Plant response rating, Blackgrass ([1]; Rate 250 g/ha, Preemergence): 5; Plant response rating, B. signalgrass ([2]; Rate 250 g/ha, Preemergence): 8; Plant response rating, Cocklebur ([3]; Rate 62 g/ha, Postemergence): 7; Plant response rating, Cocklebur ([3]; Rate 250 g/ha, Preemergence): 0; Plant response rating, Morningglory ([4]; Rate 125 g/ha, Postemergence): 8; Plant response rating, Morningglory ([4]; Rate 250 g/ha, Preemergence): 6; Plant response rating, Redroot pigweed ([5]; Rate 125 g/ha, Postemergence): 9; Redroot pigweed plant response rating ([5]; Rate 125 g/ha, Preemergence): 8; Plant response rating, Redroot pigweed ([5]; Rate 250 g/ha, Postemergence): 10; Plant response rating, Redroot pigweed ([5]; Rate 250 g/ha, Preemergence): 9; Plant response rating, Arrowleaf sida ([6]; Rate 35 g/ha): 70; Plant response rating, Arrowleaf sida ([6]; Rate 70 g/ha): 85; Plant response rating, Arrowleaf sida ([6]; Rate 140 g/ha): 90; Plant response rating, Johnsongrass ([7]; Rate 35 g/ha): 0; Plant response rating, Johnsongrass ([7]; Rate 70 g/ha): 0; Plant response rating, Johnsongrass ([7]; Rate 140 g/ha): 5; Plant response rating, Redroot pigweed ([8]; Rate 70 g/ha): 80; Plant response rating, Redroot pigweed ([8]; Rate 140 g/ha): 100
Cc1cnc(-n2cnc(C(F)(F)F)n2)nc1Cc1cccc(C(F)(F)F)c1 [Compound 43] | 5 | 2 | 6 | 5 | 8 | 4 | 5 | 4 | 9 | 6 | 1 | 7 | 2 | 9 | 9 | 9 | 10 | 10 | 10 | 10 | Plant response rating, Blackgrass [1, 9]: 8; Plant response rating, B. signalgrass ([2]; Rate 250 g/ha, Postemergence as printed in head r139 (second section for compounds 26-50)): 9; Plant response rating, Cocklebur [3, 9]: 2; Morningglory plant response rating ([4]; Rate 125 g/ha, Postemergence): 9; Plant response rating, Morningglory [4, 9]: 10; Redroot pigweed plant response rating ([5]; Rate 125 g/ha, Postemergence): 10; Redroot pigweed plant response rating ([5]; Rate 125 g/ha, Preemergence): 10; Plant response rating, Redroot pigweed ([5]; Rate 250 g/ha, Postemergence): 10; Plant response rating, Redroot pigweed [5, 9]: 10; Plant response rating, Arrowleaf sida ([6]; Rate 35 g/ha): 100; Plant response rating, Arrowleaf sida ([6]; Rate 70 g/ha): 100; Plant response rating, Arrowleaf sida ([6]; Rate 140 g/ha): 100; Plant response rating, Johnsongrass ([7]; Rate 35 g/ha): 10; Plant response rating, Johnsongrass ([7]; Rate 70 g/ha): 30; Plant response rating, Johnsongrass ([7]; Rate 140 g/ha): 30; Plant response rating, Redroot pigweed ([8]; Rate 35 g/ha): 100; Plant response rating, Redroot pigweed ([8]; Rate 70 g/ha): 100; Plant response rating, Redroot pigweed ([8]; Rate 140 g/ha): 100
